{"source": "patent US20240366577A1", "about": "“CONTROLLED LONG-TERM DRUG DELIVERY AND METHODS THEREOF” (THE JOHNS HOPKINS UNIVERSITY, priority 2021, published 2024)", "key": {"[1]": {"tested_on": "endothelial cell marker Cd31", "experiment": "qPCR of retrieved tumors: Cd31", "type": "in vivo, BALB/c mice", "settings": "crystals, compared to daily liquid bolus drug treatment; tumors at end of study", "experimental": "(§1) To determine the anti-angiogenic efficacy of each sorafenib treatment group, qPCR gene expression analysis was performed on retrieved tumors at the conclusion of the study. In particular, analysis for levels of endothelial cell marker Cd31, vascular endothelial-cadherin (VE-Cdh), smooth muscle pericyte marker alpha Smooth Muscle actin (aSMact), and stem/progenitor cell marker Cd34 were conducted, as shown in FIG. 3F.\n(§2) 1 mL of TRIzol reagent (Cat#15596018, ThermoFisher) was added to 100 mg samples of tumor tissue and broken down with a power homogenizer (Polytron/VWR). Homogenized samples were incubated at room temperature for 5 min for complete nucleoprotein dissociation, then 0.2 ml of chloroform (Sigma) was added to each sample. Samples were shaken vigorously for 15 seconds and incubated at room temperature for 3 min before centrifuging at 12,000 g for 15 min at 4° C. The uppermost supernatant layer was pipetted into a 1.7 mL Eppendorf tube, with the remaining interphase and organic layer discarded. 0.5 mL of isopropanol (Sigma) was added to each sample, and then samples were incubated for 10 min. Samples were centrifuged at 12,000 g for 10 min at 4° C. […] Depending on size of resultant pellet, pellets were resuspended in 50-100 μL, and nucleic acid concentration was measured using a NanoDrop 2000 spectrophotometer (ThermoFisher). […]"}, "[2]": {"tested_on": "VE-Cdh, aSMact, Cd34", "experiment": "qPCR of retrieved tumors: VE-Cdh, aSMact, Cd34", "type": "in vivo, BALB/c mice", "settings": "crystals, compared to daily bolus; tumors at end of study", "experimental": "as §1, §2"}, "[3]": {"tested_on": "choroidal neovascularization (CNV)", "experiment": "mouse laser-induced CNV model, fundus fluorescein angiography", "type": "in vivo", "settings": "two intravitreal doses (14 days before and 1 day after laser) vs saline; p=0.0290 single lesion analysis", "source_text": "Wet age-related macular degeneration (wet AMD) is a leading cause of blindness in the U.S. and globally, requiring effective treatments, particularly with the use of drugs or treatments that allow sustained management of the disease. Choroidal neovascularization (CNV), or pathologic angiogenesis, is the cause of the visual loss that occurs in wet AMD. Therefore, sorafenib is also a possible treatment for wet AMD, but the effect of the drug when delivered in a liquid form is brief. It has been shown that optimized crystal formulations of sorafenib providing sustained release have the potential to work over a longer period of time. As shown herein, the experiments tested the effect of intravitreal administration of crystal sorafenib vs. vehicle, in saline, of sorafenib in a mouse laser-induced CNV model. FIG. 5 depicts a timeline of an experimental procedure, in accordance with the present disclosure. Crystalline sorafenib, as described herein, was administered to two batches of mice. In the first batch of mice, 16 mice were injected, 14 days before a laser treatment and 1 day after laser treatment. In the second batch of mice, 13 mice were injected 7 days before laser treatment. FIGS. 6A-6D depict charts of fluorescent intensity as measured with the use of fundus fluorescein angiography (FFA), according to the present disclosure. […]"}}, "data": [{"smiles": "CNC(=O)c1cc(Oc2ccc(NC(=O)Nc3ccc(Cl)c(C(F)(F)F)c3)cc2)ccn1", "note": "[crystalline sorafenib, sorafenib]", "values": [{"measurement": "endothelial cell Cd31 expression levels (qPCR)", "setting": "[1]", "value": "more effectively reduced"}, {"measurement": "knockdown of VE-Cdh, aSMact and Cd34 (qPCR)", "setting": "[2]", "value": "not as significant"}, {"measurement": "CNV (FFA fluorescent intensity)", "setting": "[3]", "value": "appears to reduce CNV"}]}]}
